Like-named read-outs stand apart in the source and are kept apart here.
What was measured:
[1] = target: T1, human DGKα (Homo sapiens, UniProt P23743); assay: DGKα LIPGLO assay (extruded liposome substrate), in vitro DGK inhibition; assay type: biochemical; settings: read-out: DGKa LIPGLO IC50
T1 construct: TVMV protease cleavage site (C); Hexa-His (C); made in house; host or cells: Sf9 insect cells (baculovirus, Bac-to-Bac)

[2] = target: T2, human DGKζ (Homo sapiens, UniProt Q13574); assay: DGKζ LIPGLO assay (extruded liposome substrate), in vitro DGK inhibition; assay type: biochemical; settings: read-out: DGKz LIPGLO IC50
T2 construct: TVMV protease cleavage site (C); Hexa-His (C); made in house; host or cells: Sf9 insect cells (baculovirus, Bac-to-Bac)

[3] = system: Human venous whole blood; assay: Human whole blood IFN-γ assay; assay type: cell-based; settings: human whole blood, read-out: INFg Whole Blood Normalized Agonist EC50;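 also: blood from healthy donors exposed to compound for 1 h before stimulation with anti-CD3 and anti-CD28 at 1 µg/mL each, IFN-γ quantified in supernatant by AlphaLISA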
[4] = Homo sapiens, 24 h, normalized to 3 μM reference compound with anti-CD3 plus anti-CD28 as 100% activation
[5] = normalized to 3 μM reference compound with anti-CD3 plus anti-CD28 as 100% activation
[6] = anti-CD3 plus anti-CD28, 24 hours, 3 μM reference compound = 100% activation
[7] = Homo sapiens, 24 h, anti-CD3 plus anti-CD28, 24 hours, 3 μM reference compound = 100% activation

T1 sequence (P23743 with tags, fused parts or gaps): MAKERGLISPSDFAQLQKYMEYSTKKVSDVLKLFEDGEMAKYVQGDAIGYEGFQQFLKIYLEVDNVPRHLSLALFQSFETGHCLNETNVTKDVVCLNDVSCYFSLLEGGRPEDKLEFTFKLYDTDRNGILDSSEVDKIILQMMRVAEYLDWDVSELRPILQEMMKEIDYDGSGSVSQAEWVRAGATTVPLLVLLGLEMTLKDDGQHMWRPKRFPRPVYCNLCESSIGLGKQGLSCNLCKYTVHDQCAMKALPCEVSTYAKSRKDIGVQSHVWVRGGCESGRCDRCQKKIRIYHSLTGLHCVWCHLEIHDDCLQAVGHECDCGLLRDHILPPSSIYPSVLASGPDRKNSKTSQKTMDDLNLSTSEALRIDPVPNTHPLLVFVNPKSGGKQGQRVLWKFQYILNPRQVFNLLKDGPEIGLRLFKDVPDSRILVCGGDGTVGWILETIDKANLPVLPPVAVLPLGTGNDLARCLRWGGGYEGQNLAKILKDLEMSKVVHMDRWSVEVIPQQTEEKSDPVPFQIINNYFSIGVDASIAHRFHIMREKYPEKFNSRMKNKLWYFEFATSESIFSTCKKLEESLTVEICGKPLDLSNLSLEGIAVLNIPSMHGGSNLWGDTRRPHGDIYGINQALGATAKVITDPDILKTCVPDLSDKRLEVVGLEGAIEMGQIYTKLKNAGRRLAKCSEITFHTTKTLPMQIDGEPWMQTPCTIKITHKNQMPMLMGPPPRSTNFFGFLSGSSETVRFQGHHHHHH
T2 sequence (Q13574 with tags, fused parts or gaps isoform Q13574-4): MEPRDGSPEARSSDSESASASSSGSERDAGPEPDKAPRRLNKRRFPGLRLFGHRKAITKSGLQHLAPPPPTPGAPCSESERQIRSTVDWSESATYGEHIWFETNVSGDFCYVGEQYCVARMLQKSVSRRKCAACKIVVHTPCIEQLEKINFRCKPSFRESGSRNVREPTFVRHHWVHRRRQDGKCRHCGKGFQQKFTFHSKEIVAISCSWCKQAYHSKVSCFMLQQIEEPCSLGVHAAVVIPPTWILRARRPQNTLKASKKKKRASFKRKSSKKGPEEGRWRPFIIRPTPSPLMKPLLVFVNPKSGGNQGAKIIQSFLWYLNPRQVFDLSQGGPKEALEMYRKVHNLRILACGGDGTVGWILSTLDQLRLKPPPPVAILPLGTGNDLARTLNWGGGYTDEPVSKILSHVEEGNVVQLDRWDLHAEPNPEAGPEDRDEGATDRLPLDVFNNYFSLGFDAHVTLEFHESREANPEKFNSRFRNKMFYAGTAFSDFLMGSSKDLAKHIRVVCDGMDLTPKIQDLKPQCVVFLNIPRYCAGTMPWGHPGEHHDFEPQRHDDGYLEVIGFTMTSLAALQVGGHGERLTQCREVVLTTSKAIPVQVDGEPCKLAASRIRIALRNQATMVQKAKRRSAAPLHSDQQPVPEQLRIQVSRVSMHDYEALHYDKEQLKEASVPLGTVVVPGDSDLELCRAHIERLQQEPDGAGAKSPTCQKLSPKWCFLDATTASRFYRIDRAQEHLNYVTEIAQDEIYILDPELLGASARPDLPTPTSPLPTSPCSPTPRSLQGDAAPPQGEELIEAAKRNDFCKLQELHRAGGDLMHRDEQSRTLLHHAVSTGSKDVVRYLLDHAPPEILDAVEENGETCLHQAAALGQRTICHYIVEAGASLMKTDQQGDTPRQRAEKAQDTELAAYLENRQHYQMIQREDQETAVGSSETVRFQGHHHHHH

SMILES	IC50 ([1]; liposome (LIPGLO) assay)	IC50 ([2]; liposome (LIPGLO) assay)	IC50 ([1]; DGKα liposome (LIPGLO) assay)	IC50 ([2]; DGKζ liposome (LIPGLO) assay)	EC50 [3, 4]	EC50 [3, 5]	EC50 [3, 6]	EC50 [3, 7]
COCCOC[C@@H]1CN(c2cc(=O)n(C)c3ccc(C#N)nc23)[C@@H](C)CN1C(C)c1ccc(OC(F)(F)F)cc1 (single isomer, unassigned) [Example 1406]	2700 nM	950 nM	–	–	12000 nM	–	–	–
CCC(c1ccc(OC(F)(F)F)cc1F)N1C[C@H](C)N(c2cc(=O)n(C)c3ccc(C#N)nc23)C[C@H]1CC (single isomer, unassigned) [Example 421]	7800 nM	1800 nM	–	–	–	2600 nM	–	–
CC(c1ccc(OC(F)(F)F)cc1)N1C[C@H](C)N(c2cc(=O)n(C)c3ccc(C#N)nc23)C[C@H]1CN1CCOCC1 (single isomer, unassigned) [Example 1415]	19000 nM	1800 nM	–	–	–	6900 nM	–	–
CCC(c1cc(OC(F)(F)F)ccc1F)N1C[C@H](C)N(c2cc(=O)n(C)c3ccc(C#N)nc23)C[C@H]1C (stereo partly drawn) [Example 1207]	14000 nM	1400 nM	–	–	–	13000 nM	–	–
CC(c1ccc(C2(C#N)CC2)cc1)N1C[C@H](C)N(c2cc(=O)n(C)c3ccc(C#N)nc23)C[C@H]1C (stereo partly drawn) [Example 1253]	1900 nM	340 nM	–	–	1800 nM	–	–	–
CC(c1cccc(OC(F)(F)F)c1)N1C[C@H](C)N(c2cc(=O)n(C)c3ccc(C#N)nc23)C[C@H]1C (single isomer, unassigned) [Example 1268]	2100 nM	1000 nM	–	–	5200 nM	–	–	–
C[C@@H]1CN(c2cc(=O)n(C)c3ccc(C#N)nc23)[C@@H](C)CN1C(c1ccc(F)cc1)c1nc(C2CN(C(=O)OC(C)(C)C)C2)no1 (single isomer, unassigned) [Example 757]	–	–	23 nM	160 nM	–	–	1000 nM	–
C[C@@H]1CN(c2c(C#N)c(=O)n(C)c3ccc(C#N)nc23)[C@@H](C)CN1C(c1ccc(Cl)cc1)c1ccc(F)cn1 (single isomer, unassigned) [Example 829]	–	–	5500 nM	8000 nM	–	–	–	1200 nM
COC[C@H]1CN(c2cc(=O)n(C)c3ccc(C#N)nc23)[C@H](C)CN1C(c1ccc(F)cc1)c1ccc(F)cc1 [Example 1183, 8-((2R,5R)-4-(bis(4-fluorophenyl)methyl)-5-(methoxymethyl)-2-methylpiperazin-1-yl)-5-methyl-6-oxo-5,6-dihydro-1,5-naphthyridine-2-carbonitrile]	> 250000 nM	8900 nM	–	–	9200 nM	–	–	–
CC(c1ccc(OC(F)(F)F)c(F)c1)N1C[C@H](C)N(c2cc(=O)n(C)c3ccc(C#N)nc23)C[C@H]1C (single isomer, unassigned) [Example 1205]	1700 nM	2700 nM	–	–	–	8000 nM	–	–
C[C@@H]1CN(c2cc(=O)n(C)c3ccc(C#N)nc23)[C@@H](C)CN1Cc1ccc(OC(F)(F)F)cc1Cl [Example 607]	1900 nM	7600 nM	–	–	2000 nM	–	–	–
C[C@@H]1CN(c2cc(=O)n(C)c3ccc(C#N)nc23)[C@@H](C)CN1C1(c2ccc(F)cc2)CC1 [Example 1454, 8-((2S,5R)-4-(1-(4-fluorophenyl)cyclopropyl)-2,5-dimethylpiperazin-1-yl)-5-methyl-6-oxo-5,6-dihydro-1,5-naphthyridine-2-carbonitrile]	1600 nM	45000 nM	–	–	10000 nM	–	–	–
C[C@@H]1CN(c2c(C#N)c(=O)n(C)c3ccc(C#N)nc23)[C@@H](C)CN1C(c1ccc(F)cc1)c1csc(C2CC2)n1 (single isomer, unassigned) [Example 858]	–	–	480 nM	150 nM	–	–	1700 nM	–
Cc1cc(C(c2ccc(F)cc2)N2C[C@H](C)N(c3cc(=O)n(C)c4ccc(C#N)nc34)C[C@H]2C)no1 (single isomer, unassigned) [Example 733]	–	–	4100 nM	1500 nM	–	–	3500 nM	–
C[C@@H]1CN(c2c(C#N)c(=O)n(C)c3ccc(C#N)nc23)CCN1Cc1ccccc1C#N [Example 1009]	–	–	1800 nM	6700 nM	–	–	–	20000 nM
Cc1cc(C(C)N2C[C@H](C)N(c3cc(=O)n(C)c4ccc(C#N)nc34)C[C@H]2C)ccc1F (stereo partly drawn) [Example 1255]	3100 nM	2000 nM	–	–	2900 nM	–	–	–
CC[C@@H]1CN(c2cc(=O)n(C)c3ccc(C#N)nc23)[C@@H](C)CN1C(C)c1ccc(F)cc1 (single isomer, unassigned) [Example 1084]	1700 nM	5000 nM	–	–	–	2600 nM	–	–
C[C@@H]1CN(c2c(C#N)c(=O)n(C)c3ccc(C#N)nc23)CCN1Cc1cccc(C#N)n1 [Example 989]	–	–	5200 nM	32000 nM	–	–	–	20000 nM
CC(c1ccccn1)N1CCN(c2c(C#N)c(=O)n(C)c3ccc(C#N)nc23)C[C@H]1C (single isomer, unassigned) [Example 963]	–	–	1400 nM	180000 nM	–	–	–	20000 nM
C[C@@H]1CN(c2c(C#N)c(=O)n(C)c3ccc(C#N)nc23)CCN1C(c1ccc(F)cc1)c1ccc(C(F)(F)F)cc1 (single isomer, unassigned) [Example 914]	–	–	1300 nM	1500 nM	–	–	1900 nM	–
C[C@@H]1CN(c2cc(=O)n(C)c3ccc(C#N)nc23)[C@@H](C)CN1C(c1ccc(F)cc1)c1ccc(N2CCOCC2)cc1 (single isomer, unassigned) [Example 663]	> 250000 nM	24000 nM	–	–	–	20000 nM	–	–
C[C@@H]1CN(c2cc(=O)n(C)c3ccc(C#N)nc23)[C@@H](C)CN1C(c1ccc(F)cc1)c1cccc(S(C)(=O)=O)c1 (single isomer, unassigned) [Example 688]	83000 nM	24000 nM	–	–	–	13000 nM	–	–
C[C@@H]1CN(c2c(C#N)c(=O)n(C)c3ccc(C#N)nc23)CCN1C(c1ccc(F)cc1)c1cccc2c1OC(F)(F)O2 (single isomer, unassigned) [Example 940]	–	–	25000 nM	7200 nM	–	–	2200 nM	–
COc1ccc(C(C)N2C[C@H](C)N(c3cc(=O)n(C)c4ccc(C#N)nc34)C[C@H]2C)cc1OCCN1CCOCC1 (stereo partly drawn) [Example 1305]	130000 nM	7500 nM	–	–	20000 nM	–	–	–

More lines, in order of falling IC50 ([1]; liposome (LIPGLO) assay), values ahead:

IC50 ([1]; liposome (LIPGLO) assay)	IC50 ([2]; liposome (LIPGLO) assay)	IC50 ([1]; DGKα liposome (LIPGLO) assay)	IC50 ([2]; DGKζ liposome (LIPGLO) assay)	SMILES	EC50 [3, 4]	EC50 [3, 5]	EC50 [3, 6]	EC50 [3, 7]
1200 nM	2500 nM	–	–	C[C@@H]1CN(c2cc(=O)n(C)c3ccc(C#N)nc23)[C@@H](C)CN1C(c1ccc(F)cc1)c1ccc(C(F)(F)F)cn1 (single isomer, unassigned) [Example 680]	480 nM	–	–	–
670 nM	14000 nM	–	–	C[C@@H]1CN(c2cc(=O)n(C)c3ccc(C#N)nc23)[C@@H](C)CN1C(c1ccc(F)cc1)c1cocn1 (single isomer, unassigned) [Example 709]	–	2100 nM	–	–
660 nM	660 nM	–	–	Cc1ccnc(C(c2ccc(Cl)cc2)N2C[C@H](C)N(c3cc(=O)n(C)c4ccc(C#N)nc34)C[C@H]2C)c1 (single isomer, unassigned) [Example 448]	–	1100 nM	–	–
570 nM	300 nM	–	–	CC[C@@H]1CN(c2cc(=O)n(C)c3ccc(C#N)nc23)[C@@H](C)CN1C(c1ccc(C)cc1)c1ccc(C)cc1 [Example 1098]	150 nM	–	–	–
370 nM	1100 nM	–	–	CC[C@H]1CN(C(c2ccc(F)cc2)c2ccc(C#N)cc2)[C@H](CC)CN1c1cc(=O)n(C)c2ccc(C#N)nc12 (stereo partly drawn) [Example 1035]	290 nM	–	–	–
360 nM	1500 nM	–	–	CC[C@H]1CN(C(c2cccc(F)c2)c2ccc(C)cn2)[C@H](C)CN1c1cc(=O)n(C)c2ccc(C#N)nc12 (single isomer, unassigned) [Example 1125]	–	170 nM	–	–
330 nM	34 nM	–	–	CC[C@H]1CN(C(C)c2ccc3c(c2)OC(F)(F)O3)[C@H](CC)CN1c1cc(=O)n(C)c2ccc(C#N)nc12 (single isomer, unassigned) [Example 1368]	–	63 nM	–	–
300 nM	100 nM	–	–	COC[C@@H]1CN(c2cc(=O)n(C)c3ccc(C#N)nc23)[C@@H](C)CN1C(c1ccc(F)cc1)c1ccc(C(F)(F)F)cn1 (stereo partly drawn) [Example 1402]	–	260 nM	–	–
270 nM	770 nM	–	–	Cc1ccc(C(c2ccc(Cl)cc2)N2C[C@H](C)N(c3cc(=O)n(C)c4ccc(C#N)nc34)C[C@H]2C)nc1 (single isomer, unassigned) [Example 365]	–	360 nM	–	–
200 nM	78 nM	–	–	CC[C@@H]1CN(c2cc(=O)n(C)c3ccc(C#N)nc23)[C@@H](C)CN1C(c1ccc(Cl)cc1)c1ccc(F)cn1 (stereo partly drawn) [Example 1111]	–	310 nM	–	–
140 nM	260 nM	–	–	CCOc1cc(F)c(CN2C[C@H](C)N(c3cc(=O)n(C)c4ccc(C#N)nc34)C[C@H]2C)c(F)c1 [Example 1275]	190 nM	–	–	–
62 nM	5400 nM	–	–	C[C@@H]1CN(c2cc(=O)n(C)c3ccc(C#N)nc23)[C@@H](C)CN1C(c1ccc(F)cc1)c1ncccn1 (stereo partly drawn) [Example 676]	1800 nM	–	–	–
33 nM	120 nM	–	–	CC[C@H]1CN(C(c2ccc(F)cc2)c2ccon2)[C@H](CC)CN1c1cc(=O)n(C)c2ccc(C#N)nc12 (single isomer, unassigned) [Example 1073]	–	210 nM	–	–
8.8 nM	160 nM	–	–	CC[C@H]1CN(C(C)c2ccc(OC(F)F)cc2)[C@H](C)CN1c1cc(=O)n(C)c2ccc(C#N)nc12 (single isomer, unassigned) [Example 1379]	–	510 nM	–	–
